Test results published in ChEMBL document CHEMBL1287710, “A novel small-molecule inhibitor of IL-6 signalling” (Bioorg Med Chem Lett, 2010).
Activity calls are given as the source filed them. No cut-off for these calls is given here.

What was measured:
[1] = target: Signal transducer and activator of transcription 3 (Homo sapiens) (UniProt P40763); experiment: Inhibition of STAT3 in IL-6-stimulated human MDA-MB-231 cells assessed as reduction in cell viability up to 125 uM after 24 hrs by MTS assay; type: cell-based
Sequence of Signal transducer and activator of transcription 3 (Homo sapiens) (P40763 whole entry): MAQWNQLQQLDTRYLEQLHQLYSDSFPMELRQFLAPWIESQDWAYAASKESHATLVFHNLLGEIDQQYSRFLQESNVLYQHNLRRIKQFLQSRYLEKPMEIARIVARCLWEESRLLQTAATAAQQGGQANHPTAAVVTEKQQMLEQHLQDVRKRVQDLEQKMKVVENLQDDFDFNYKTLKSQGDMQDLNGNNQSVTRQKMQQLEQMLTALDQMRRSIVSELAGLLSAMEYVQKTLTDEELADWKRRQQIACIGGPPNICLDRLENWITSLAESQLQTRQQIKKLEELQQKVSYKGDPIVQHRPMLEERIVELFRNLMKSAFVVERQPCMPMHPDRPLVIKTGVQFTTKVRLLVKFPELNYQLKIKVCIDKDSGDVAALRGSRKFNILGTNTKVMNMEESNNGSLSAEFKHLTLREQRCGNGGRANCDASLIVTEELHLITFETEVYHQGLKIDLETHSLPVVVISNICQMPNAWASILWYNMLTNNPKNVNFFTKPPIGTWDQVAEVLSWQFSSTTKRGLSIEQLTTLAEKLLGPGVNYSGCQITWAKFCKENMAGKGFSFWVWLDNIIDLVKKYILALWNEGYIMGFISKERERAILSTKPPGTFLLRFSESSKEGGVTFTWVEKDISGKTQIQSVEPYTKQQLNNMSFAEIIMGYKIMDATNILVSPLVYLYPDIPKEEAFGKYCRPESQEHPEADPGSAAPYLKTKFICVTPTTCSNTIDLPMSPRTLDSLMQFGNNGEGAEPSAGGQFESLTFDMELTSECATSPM

MDA-MB-231 = experiment: Cytostatic activity against human MDA-MB-231 cells assessed as cell viability after 24 hrs by trypan blue assay; type: functional, cell-based
[2] = target: Signal transducer and activator of transcription 3 (Homo sapiens) (UniProt P40763); experiment: Inhibition of IL-6 induced STAT3 phosphorylation at tyrosine 705 residue in serum-starved human MDA-MB-231 cells at 30 to 100 uM after 20 mins by Western blot analysis; type: cell-based
[3] = target: Signal transducer and activator of transcription 3 (Homo sapiens) (UniProt P40763); experiment: Inhibition of IL-6 induced STAT3 phosphorylation at tyrosine 705 residue in serum-starved human HeLa cells at 10 to 30 uM after 20 mins by Western blot analysis; type: cell-based
[4] = target: T1, Signal transducer and activator of transcription 1-alpha/beta (Homo sapiens) (UniProt P42224); experiment: Induction of STAT1 phosphorylation in human HeLa cells at 30 to 100 uM by Western blot analysis; type: cell-based
T1 sequence (whole entry): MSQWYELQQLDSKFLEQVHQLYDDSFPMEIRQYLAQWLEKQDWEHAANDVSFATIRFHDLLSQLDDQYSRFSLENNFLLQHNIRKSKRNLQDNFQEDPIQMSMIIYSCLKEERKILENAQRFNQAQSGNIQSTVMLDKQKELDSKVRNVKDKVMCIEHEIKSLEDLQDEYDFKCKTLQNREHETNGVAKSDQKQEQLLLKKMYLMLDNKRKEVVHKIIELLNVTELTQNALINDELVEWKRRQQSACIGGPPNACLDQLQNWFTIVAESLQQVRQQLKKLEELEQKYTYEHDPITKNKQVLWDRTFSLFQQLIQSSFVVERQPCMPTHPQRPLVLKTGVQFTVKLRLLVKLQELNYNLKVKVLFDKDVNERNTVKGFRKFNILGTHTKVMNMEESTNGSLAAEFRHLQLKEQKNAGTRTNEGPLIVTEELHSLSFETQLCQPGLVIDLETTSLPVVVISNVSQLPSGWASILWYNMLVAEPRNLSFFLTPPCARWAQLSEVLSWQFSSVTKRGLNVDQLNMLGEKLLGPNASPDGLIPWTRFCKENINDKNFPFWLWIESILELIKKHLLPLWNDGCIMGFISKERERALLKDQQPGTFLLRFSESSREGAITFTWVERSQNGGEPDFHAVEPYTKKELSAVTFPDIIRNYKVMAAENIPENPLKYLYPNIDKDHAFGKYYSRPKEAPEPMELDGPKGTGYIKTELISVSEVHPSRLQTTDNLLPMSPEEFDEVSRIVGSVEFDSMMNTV

[5] = target: Signal transducer and activator of transcription 3 (Homo sapiens) (UniProt P40763); experiment: Inhibition of STAT3 in human HeLa cells at 5 to 100 uM by luciferase reporter assay; type: cell-based

Cc1ccc(-c2sc(C(=O)NCc3cccs3)cc2S(=O)(=O)N2CCCC2)cc1
inhibition [1]: 40%
Activity (MDA-MB-231): inactive
Activity [2]: Active
Activity [3]: Active
Activity [4]: Active
Activity [5]: 15 µM
